From paper PMC4166403 (Cell, 2014)

Assays:
[1] = molecular target: T1, pyruvate carboxylase (LmPC) (Listeria monocytogenes, UniProt Q8Y846); assay: PC activity assay with nucleotide analogues; type: biochemical
T1 sequence (Q8Y846 1-1146): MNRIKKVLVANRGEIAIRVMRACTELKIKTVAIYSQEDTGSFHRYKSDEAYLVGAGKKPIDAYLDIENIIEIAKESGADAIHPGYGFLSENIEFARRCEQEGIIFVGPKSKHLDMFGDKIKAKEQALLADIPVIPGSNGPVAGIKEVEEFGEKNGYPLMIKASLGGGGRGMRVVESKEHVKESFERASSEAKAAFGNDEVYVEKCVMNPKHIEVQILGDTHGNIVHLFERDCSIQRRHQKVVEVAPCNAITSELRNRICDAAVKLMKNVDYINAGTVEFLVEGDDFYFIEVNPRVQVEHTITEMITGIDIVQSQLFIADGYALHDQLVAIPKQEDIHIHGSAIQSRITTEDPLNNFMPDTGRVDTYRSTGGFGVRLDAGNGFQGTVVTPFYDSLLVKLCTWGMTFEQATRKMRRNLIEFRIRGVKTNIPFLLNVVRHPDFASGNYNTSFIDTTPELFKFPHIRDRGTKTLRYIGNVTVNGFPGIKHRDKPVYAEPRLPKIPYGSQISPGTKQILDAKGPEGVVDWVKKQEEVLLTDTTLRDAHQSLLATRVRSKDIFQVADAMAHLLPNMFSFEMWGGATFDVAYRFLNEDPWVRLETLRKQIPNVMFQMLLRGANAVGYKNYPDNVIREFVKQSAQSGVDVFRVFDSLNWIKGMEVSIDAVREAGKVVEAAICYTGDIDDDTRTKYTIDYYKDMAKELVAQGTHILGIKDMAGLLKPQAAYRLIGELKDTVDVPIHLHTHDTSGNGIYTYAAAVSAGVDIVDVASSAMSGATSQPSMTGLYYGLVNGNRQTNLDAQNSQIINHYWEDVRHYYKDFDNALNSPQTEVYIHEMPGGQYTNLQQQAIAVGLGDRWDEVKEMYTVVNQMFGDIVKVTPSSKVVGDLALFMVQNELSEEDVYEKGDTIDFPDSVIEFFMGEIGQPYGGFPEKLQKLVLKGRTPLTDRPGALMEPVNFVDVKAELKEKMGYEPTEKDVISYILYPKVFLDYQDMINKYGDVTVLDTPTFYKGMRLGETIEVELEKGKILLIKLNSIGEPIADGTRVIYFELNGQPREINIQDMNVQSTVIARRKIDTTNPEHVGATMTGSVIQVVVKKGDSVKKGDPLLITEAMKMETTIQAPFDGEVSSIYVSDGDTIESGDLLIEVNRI

[2] = molecular target: T2, PdeA (Lmo0052) (Listeria monocytogenes, UniProt A0A0H3GCG4); assay: DRaCALA with […]-c-di-AMP, purified recombinant protein; type: binding
T2 sequence (A0A0H3GCG4 1-657): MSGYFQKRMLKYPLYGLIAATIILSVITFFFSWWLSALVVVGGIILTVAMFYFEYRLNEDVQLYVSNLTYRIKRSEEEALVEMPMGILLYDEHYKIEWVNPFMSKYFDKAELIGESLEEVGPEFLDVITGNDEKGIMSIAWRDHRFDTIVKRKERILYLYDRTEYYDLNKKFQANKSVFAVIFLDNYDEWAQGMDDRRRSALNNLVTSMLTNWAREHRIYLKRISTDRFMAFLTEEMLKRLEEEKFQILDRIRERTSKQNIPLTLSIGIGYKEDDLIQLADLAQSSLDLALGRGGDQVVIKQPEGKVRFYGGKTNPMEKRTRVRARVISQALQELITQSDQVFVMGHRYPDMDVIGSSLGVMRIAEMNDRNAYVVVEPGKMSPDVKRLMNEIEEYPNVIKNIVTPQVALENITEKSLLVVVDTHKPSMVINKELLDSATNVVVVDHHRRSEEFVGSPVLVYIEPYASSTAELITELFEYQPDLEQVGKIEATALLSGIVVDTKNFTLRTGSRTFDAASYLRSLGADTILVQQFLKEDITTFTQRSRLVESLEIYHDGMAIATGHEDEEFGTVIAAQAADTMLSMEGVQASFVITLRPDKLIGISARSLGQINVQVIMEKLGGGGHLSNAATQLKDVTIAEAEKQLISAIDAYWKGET

[3] = molecular target: T1, pyruvate carboxylase (LmPC); assay: crystal structure; type: binding
[4] = molecular target: T3, Lmo1466 (Listeria monocytogenes, UniProt Q8Y746); assay: DRaCALA with […]-c-di-AMP in E. coli lysate expressing the protein; type: cell-based
T3 sequence (Q8Y746 1-718): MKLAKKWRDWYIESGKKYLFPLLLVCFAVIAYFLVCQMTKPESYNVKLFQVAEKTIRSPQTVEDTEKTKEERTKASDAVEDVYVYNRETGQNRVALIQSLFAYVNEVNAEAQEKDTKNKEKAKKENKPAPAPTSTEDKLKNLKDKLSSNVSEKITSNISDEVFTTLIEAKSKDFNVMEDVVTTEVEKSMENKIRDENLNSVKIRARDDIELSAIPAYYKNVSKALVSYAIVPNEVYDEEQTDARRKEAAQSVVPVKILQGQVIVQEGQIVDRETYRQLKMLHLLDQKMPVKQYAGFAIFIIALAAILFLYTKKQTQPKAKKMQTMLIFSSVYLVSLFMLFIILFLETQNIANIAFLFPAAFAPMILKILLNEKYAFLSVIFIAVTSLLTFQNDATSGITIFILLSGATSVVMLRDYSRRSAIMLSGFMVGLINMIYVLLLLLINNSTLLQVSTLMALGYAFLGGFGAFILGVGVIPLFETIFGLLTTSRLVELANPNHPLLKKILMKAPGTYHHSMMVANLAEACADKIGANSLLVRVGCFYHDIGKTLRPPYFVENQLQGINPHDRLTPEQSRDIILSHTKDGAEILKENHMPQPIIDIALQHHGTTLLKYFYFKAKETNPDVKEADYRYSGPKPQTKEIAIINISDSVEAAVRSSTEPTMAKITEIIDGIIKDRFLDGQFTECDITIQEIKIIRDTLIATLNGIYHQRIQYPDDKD

[5] = molecular target: pyruvate carboxylase (LmPC) (Listeria monocytogenes, UniProt Q8Y846, Y722F); assay: binding titration and enzyme inhibition of purified mutant
[6] = molecular target: the molecule itself; assay: crystal structure

Molecule: O=c1[nH]cnc2c1ncn2[C@@H]1O[C@@H]2COP(=O)(O)O[C@H]3[C@@H](O)[C@H](n4cnc5c(=O)[nH]cnc54)O[C@@H]3COP(=O)(O)O[C@H]2[C@H]1O [c-di-IMP]
- PC activity assay with nucleotide analogues [1]: while c-di-IMP did show weak inhibitory activity

Molecule: Nc1ncnc2c1ncn2[C@@H]1O[C@@H]2CO[P@@](=O)(O)O[C@H]3[C@@H](O)[C@H](n4cnc5c(N)ncnc54)O[C@@H]3CO[P@@](=O)(O)O[C@H]2[C@H]1O [cdA, c-di-AMP]
- DRaCALA with 32P-c-di-AMP, purified recombinant protein [2]: as well as PdeA and LmPC exhibited binding in purified form
- Kd [3]: 8 ± 0.2 µM
- DRaCALA with 32P-c-di-AMP in E. coli lysate expressing the protein [4]: A significant level of binding was observed for Lmo1466 and NrdR-expressing lysates, consistent with a direct interaction with c-di-AMP
- binding titration and enzyme inhibition of purified mutant [5]: binding to c-di-AMP was only observed for Y722F and none of the other amino acid variants

B1: Listeria monocytogenes pyruvate carboxylase (LmPC) (enzyme)
chain: T1 sequence (Q8Y846 1-1146)
modifications: biotin group on the BCCP domain (position not given)
- stoichiometry N [6]: 4
